Several values for one entry are separate records, joined by “and”; a condition that tells them apart may be missing. Equal entries are not always repeated. Toxic doses and inconclusive results are not listed.
Test system: CD2F1 mice, L1210 leukemia ip, survival T/C
Assay: NCI In Vivo Anticancer Drug Screen. Data for tumor model L1210 Leukemia (intraperitoneal) in CD2F1 (CDF1) mice
Details: higher = longer survival
Procedure, shortened: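 Transplantable tumor in mice; compound-treated vs vehicle-treated groups. Read-out = treated/control ratio of the measured endpoint.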

For `CCC(C)C(NC(=O)OCc1ccccc1)C(=O)ON1C(=O)CCC1=O` (stereo not drawn), which T/C (endpoint: mean survival time, dose: 100.0 mg/kg/injection, schedule: Q04DX003 (ip), vehicle: saline sonified) is on record?
Its T/C is 95 % of control.

What about the T/C (endpoint: mean survival time, dose: 200.0 mg/kg/injection, schedule: Q04DX003 (ip), vehicle: saline sonified) of the same molecule?
The T/C was 90 % of control.

And the T/C (endpoint: mean survival time, dose: 400.0 mg/kg/injection, schedule: Q04DX003 (ip), vehicle: saline sonified)?
Its T/C is 100 % of control.

Which results are given for `O=NN(CCCl)C(=O)NC1CCCCC1`?
T/C (endpoint: mean survival time, dose: 0.5 mg/kg/injection, schedule: Q03HX008 (oral), vehicle: saline): 214 % of control; T/C (endpoint: mean survival time, dose: 0.5 mg/kg/injection, schedule: Q03HX024 (oral), vehicle: saline): 290 % of control; T/C (endpoint: mean survival time, dose: 0.5 mg/kg/injection, schedule: Q03HX040 (oral), vehicle: saline): 200 % of control; T/C (endpoint: mean survival time, dose: 1.0 mg/kg/injection, schedule: Q01DX001 (ip), vehicle: saline): 98 % of control; T/C (endpoint: mean survival time, dose: 1.0 mg/kg/injection, schedule: Q01DX005 (ip), vehicle: saline): 113 % of control; T/C (endpoint: mean survival time, dose: 1.0 mg/kg/injection, schedule: Q01DX009 (ip), vehicle: saline): 100 % of control; T/C (endpoint: mean survival time, dose: 1.0 mg/kg/injection, schedule: Q03HX024 (oral), vehicle: saline): 194 % of control; T/C (endpoint: mean survival time, dose: 1.0 mg/kg/injection, schedule: Q03HX040 (oral), vehicle: saline): 96 % of control; T/C (endpoint: mean survival time, dose: 2.0 mg/kg/injection, schedule: Q03HX008 (oral), vehicle: saline): 338 % of control; T/C (endpoint: mean survival time, dose: 4.0 mg/kg/injection, schedule: Q01DX001 (ip), vehicle: other): 109 % of control; T/C (endpoint: mean survival time, dose: 4.0 mg/kg/injection, schedule: Q03HX024 (oral), vehicle: saline): 96 % of control; T/C (endpoint: mean survival time, dose: 8.0 mg/kg/injection, schedule: Q01DX001 (ip), vehicle: saline): 108 % of control; T/C (endpoint: mean survival time, dose: 8.0 mg/kg/injection, schedule: Q01DX001 (oral), vehicle: saline): 100 % of control; T/C (endpoint: mean survival time, dose: 8.0 mg/kg/injection, schedule: Q01DX005 (ip), vehicle: saline): 267 % of control; T/C (endpoint: mean survival time, dose: 8.0 mg/kg/injection, schedule: Q01DX009 (ip), vehicle: saline): 191 % of control; T/C (endpoint: mean survival time, dose: 8.0 mg/kg/injection, schedule: Q03HX008 (ip), vehicle: saline): 108 % of control; T/C (endpoint: mean survival time, dose: 8.0 mg/kg/injection, schedule: Q04DX003 (ip), vehicle: saline): 124 % of control; T/C (endpoint: mean survival time, dose: 9.0 mg/kg/injection, schedule: Q01DX001 (ip), vehicle: carboxymethylcellulose (CMC)): 111 % of control; T/C (endpoint: mean survival time, dose: 16.0 mg/kg/injection, schedule: Q01DX001 (ip), vehicle: other): 169 % of control; T/C (endpoint: mean survival time, dose: 16.0 mg/kg/injection, schedule: Q01DX005 (ip), vehicle: saline): 393 % of control; T/C (endpoint: mean survival time, dose: 16.0 mg/kg/injection, schedule: Q01DX009 (ip), vehicle: saline): 315 % of control; T/C (endpoint: mean survival time, dose: 16.0 mg/kg/injection, schedule: Q03HX024 (ip), vehicle: saline): 210 % of control; T/C (endpoint: mean survival time, dose: 16.0 mg/kg/injection, schedule: Q03HX040 (ip), vehicle: saline): 217 % of control; T/C (endpoint: mean survival time, dose: 16.0 mg/kg/injection, schedule: Q04DX003 (ip), vehicle: saline + alcohol): 158 % of control and 425 % of control; T/C (endpoint: mean survival time, dose: 16.0 mg/kg/injection, schedule: Q04DX003 (ip), vehicle: saline): 279 % of control; T/C (endpoint: mean survival time, dose: 22.0 mg/kg/injection, schedule: Q01DX001 (ip), vehicle: carboxymethylcellulose (CMC)): 178 % of control; T/C (endpoint: mean survival time, dose: 32.0 mg/kg/injection, schedule: Q01DX001 (ip), vehicle: other): 348 % of control; T/C (endpoint: mean survival time, dose: 32.0 mg/kg/injection, schedule: Q01DX001 (ip), vehicle: saline): 157 % of control; T/C (endpoint: mean survival time, dose: 32.0 mg/kg/injection, schedule: Q01DX001 (oral), vehicle: saline): 118 % of control; T/C (endpoint: mean survival time, dose: 32.0 mg/kg/injection, schedule: Q01DX005 (ip), vehicle: saline): 393 % of control; T/C (endpoint: mean survival time, dose: 32.0 mg/kg/injection, schedule: Q01DX005 (oral), vehicle: saline): 310 % of control; T/C (endpoint: mean survival time, dose: 32.0 mg/kg/injection, schedule: Q01DX009 (ip), vehicle: saline): 224 % of control; T/C (endpoint: mean survival time, dose: 32.0 mg/kg/injection, schedule: Q01DX009 (oral), vehicle: saline): 159 % of control; T/C (endpoint: mean survival time, dose: 32.0 mg/kg/injection, schedule: Q03HX008 (ip), vehicle: saline): 191 % of control; T/C (endpoint: mean survival time, dose: 32.0 mg/kg/injection, schedule: Q03HX024 (ip), vehicle: saline): 421 % of control; T/C (endpoint: mean survival time, dose: 32.0 mg/kg/injection, schedule: Q03HX040 (ip), vehicle: saline): 432 % of control; T/C (endpoint: mean survival time, dose: 32.0 mg/kg/injection, schedule: Q04DX003 (ip), vehicle: saline + alcohol): 515 % of control; T/C (endpoint: mean survival time, dose: 32.0 mg/kg/injection, schedule: Q04DX003 (ip), vehicle: saline): 406 % of control; T/C (endpoint: mean survival time, dose: 32.0 mg/kg/injection, schedule: Q04DX003 (oral), vehicle: saline): 267 % of control; T/C (endpoint: mean survival time, dose: 33.0 mg/kg/injection, schedule: Q01DX001 (ip), vehicle: carboxymethylcellulose (CMC)): 208 % of control; T/C (endpoint: mean survival time, dose: 48.0 mg/kg/injection, schedule: Q04DX003 (ip), vehicle: saline + alcohol): 82 % of control; T/C (endpoint: mean survival time, dose: 50.0 mg/kg/injection, schedule: Q01DX001 (ip), vehicle: carboxymethylcellulose (CMC)): 352 % of control; T/C (endpoint: mean survival time, dose: 64.0 mg/kg/injection, schedule: Q01DX001 (ip), vehicle: other): 208 % of control; T/C (endpoint: mean survival time, dose: 64.0 mg/kg/injection, schedule: Q01DX001 (ip), vehicle: saline): 411 % of control; T/C (endpoint: mean survival time, dose: 64.0 mg/kg/injection, schedule: Q01DX005 (ip), vehicle: saline): 98 % of control; T/C (endpoint: mean survival time, dose: 64.0 mg/kg/injection, schedule: Q01DX005 (oral), vehicle: saline): 107 % of control; T/C (endpoint: mean survival time, dose: 64.0 mg/kg/injection, schedule: Q01DX009 (ip), vehicle: saline): 120 % of control; T/C (endpoint: mean survival time, dose: 64.0 mg/kg/injection, schedule: Q01DX009 (oral), vehicle: saline): 95 % of control; T/C (endpoint: mean survival time, dose: 64.0 mg/kg/injection, schedule: Q03HX008 (ip), vehicle: saline): 437 % of control; T/C (endpoint: mean survival time, dose: 64.0 mg/kg/injection, schedule: Q03HX024 (ip), vehicle: saline): 330 % of control; T/C (endpoint: mean survival time, dose: 64.0 mg/kg/injection, schedule: Q03HX040 (ip), vehicle: saline): 259 % of control; T/C (endpoint: mean survival time, dose: 64.0 mg/kg/injection, schedule: Q04DX003 (ip), vehicle: saline): 209 % of control; T/C (endpoint: mean survival time, dose: 75.0 mg/kg/injection, schedule: Q01DX001 (ip), vehicle: carboxymethylcellulose (CMC)): 332 % of control; T/C (endpoint: mean survival time, dose: 128.0 mg/kg/injection, schedule: Q01DX001 (ip), vehicle: saline): 198 % of control; T/C (endpoint: mean survival time, dose: 128.0 mg/kg/injection, schedule: Q01DX001 (oral), vehicle: saline): 330 % of control; T/C (endpoint: mean survival time, dose: 128.0 mg/kg/injection, schedule: Q03HX008 (ip), vehicle: saline): 437 % of control; T/C (endpoint: mean survival time, dose: 128.0 mg/kg/injection, schedule: Q03HX040 (ip), vehicle: saline): 86 % of control; T/C (endpoint: mean survival time, dose: 128.0 mg/kg/injection, schedule: Q04DX003 (oral), vehicle: saline): 110 % of control; T/C (endpoint: mean survival time, dose: 256.0 mg/kg/injection, schedule: Q04DX003 (oral), vehicle: saline): 86 % of control; T/C (endpoint: median survival time, dose: 1.0 mg/kg/injection, schedule: Q01DX009 (ip), vehicle: Klucel (hydroxypropylcellulose) (HPC)): 113 % of control and 106 % of control; T/C (endpoint: median survival time, dose: 2.0 mg/kg/injection, schedule: Q01DX009 (ip), vehicle: Klucel (hydroxypropylcellulose) (HPC)): 113 % of control; T/C (endpoint: median survival time, dose: 4.0 mg/kg/injection, schedule: Q04DX003 (ip), vehicle: saline + alcohol): 105 % of control; T/C (endpoint: median survival time, dose: 8.0 mg/kg/injection, schedule: Q04DX003 (ip), vehicle: saline + alcohol): 98 % of control; T/C (endpoint: median survival time, dose: 8.4 mg/kg/injection, schedule: Q01DX001 (ip), vehicle: distilled water + Tween-80 + alcohol): 94 % of control; T/C (endpoint: median survival time, dose: 14.0 mg/kg/injection, schedule: Q01DX001 (ip), vehicle: distilled water + Tween-80 + alcohol): 100 % of control; T/C (endpoint: median survival time, dose: 14.0 mg/kg/injection, schedule: Q07DX003 (ip), vehicle: saline + alcohol): 157 % of control; T/C (endpoint: median survival time, dose: 16.0 mg/kg/injection, schedule: Q04DX003 (ip), vehicle: saline + alcohol): 109 % of control; T/C (endpoint: median survival time, dose: 20.0 mg/kg/injection, schedule: Q07DX003 (ip), vehicle: saline + alcohol): 584 % of control; T/C (endpoint: median survival time, dose: 26.0 mg/kg/injection, schedule: Q07DX003 (ip), vehicle: saline + alcohol): 669 % of control; T/C (endpoint: median survival time, dose: 27.0 mg/kg/injection, schedule: Q01DX001 (ip), vehicle: carboxymethylcellulose (CMC)): 184 % of control; T/C (endpoint: median survival time, dose: 32.0 mg/kg/injection, schedule: Q04DX003 (ip), vehicle: saline + alcohol): 438 % of control; T/C (endpoint: median survival time, dose: 33.0 mg/kg/injection, schedule: Q07DX003 (ip), vehicle: saline + alcohol): 671 % of control; T/C (endpoint: median survival time, dose: 40.0 mg/kg/injection, schedule: Q01DX001 (ip), vehicle: carboxymethylcellulose (CMC)): 722 % of control; T/C (endpoint: median survival time, dose: 40.0 mg/kg/injection, schedule: Q01DX001 (ip), vehicle: distilled water + Tween-80 + alcohol): 154 % of control; T/C (endpoint: median survival time, dose: 64.0 mg/kg/injection, schedule: Q01DX009 (ip), vehicle: Klucel (hydroxypropylcellulose) (HPC)): 96 % of control and 109 % of control
